Assay results: patent US12691119B2, “Methods for treating covid-19 with sepiapterin” (PTC Therapeutics MP, Inc., priority 2021, dated 2026)

Tests used:
OT-I cells = test: OT-I splenocyte transfer with ova peptide-pulsed BMDCs; proliferation and IFN-γ by flow cytometry; assay type: in vivo, C57/B16 mice; conditions: mice
Description: FIG. 3A is a graph showing the proliferation and activation of CD8^+ T cells in the presence of sepiapterin in vivo.
FIG. 3B is a graph showing cytokine (IFN-γ) expression in cells in the presence of sepiapterin in vivo.
2×10^6 OT-I splenocytes were injected into C57/B16 mice via tail vein injection. 24 hours later, 1×10^6 ova peptide-pulsed bone marrow derived dendritic cells were injected into these mice subcutaneously. Starting on day 3, mice were given 10 mg/kg SP orally for 3 consecutive days. On day 6, mice were sacrificed and spleens were harvested and stimulated for 6 hours with brefeldin A (BFA), phorbol myristate acetate (PMA), and ionomycin. OT-I proliferation (FIG. 3A) and IFN-γ expression (FIG. 3B) were assessed via flow cytometry.

[1] = Stability on exposure to air; assay type: physicochemical; conditions: exposed to air
Description: Accordingly, pharmaceutical compositions of the invention may include antioxidants. The antioxidant may minimize the oxidative degradation of sepiapterin. […]

[2] = healthy volunteers and subjects with Phenylketonuria, Primary BH4 Deficiencies, or diabetic gastroparesis; cited from earlier work
[3] = tested on: cytokine expression in the lungs; test: Intranasal LPS model of ARDS, cytokine expression in BAL fluid by ELISA; assay type: in vivo; conditions: mice, 10 mg/kg per day oral gavage for 3 days, then 40 ug LPS intranasally; BAL 16-18 hours later; FIG. 1
Description: FIG. 1 is a graph showing cytokine expression in the lungs of mice treated with intranasal lipopolysaccharide (LPS) with or without 10 mg/kg sepiapterin (SP) treatment.
This is in line with the therapeutic effect of SP in a Dextran Sulfate Sodium//Azoxymethane model of colitis/colon cancer.
Mice were treated with either 10 mg/kg sepiapterin (SP) per day delivered via oral gavage or nothing for 3 days. Mice were then treated with 40 ug lipopolysaccharide (LPS) inhaled intranasally. 16-18 hours later, bronchoalveolar lavage (BAL) fluid was collected and assess for cytokine expression via ELISA. Untreated (UT) (n=1), LSP (n=3), LSP+SP (n=2). (FIG. 1).

[4] = tested on: CD8+ T cells (pmel splenocytes); test: CFSE-labeled pmel splenocytes co-cultured with gp100-pulsed BMDCs; CFSE dilution by flow cytometry, cytokines by ELISA; assay type: cell-based; conditions: in vitro
Description: FIG. 2A is a graph showing the proliferation and activation of CD8^+ T cells in the presence of sepiapterin in vitro.
FIG. 2B is a graph showing cytokine (interferon gamma, IFN-γ) expression in cells in the presence of sepiapterin in vitro.
FIG. 2C is a graph showing cytokine (interleukin 2, IL-2) expression in cells in the presence of sepiapterin in vitro.
1×10^5 pmel splenocytes were labeled with carboxyfluorescein succinimidyl ester (CFSE) and then co-cultured, at either a 1:10 or 1:40 ratio (splenocytes:BMDC), with gp100-pulsed bone marrow derived dendritic cells (BMDCs) for 3 days. Sepiapterin (SP) was added after BMDCs were added to splenocytes. After incubation, CFSE dilution was measured via flow cytometry (FIG. 2A) and cytokine expression was measured via ELISA (FIGS. 2B and 2C). No DC=no dendritic cells, UT=untreated. […] The enhanced secretion of IFN-γ in FIG. 2B is a result of the higher number of T cells present in wells treated with SP.

[5] = tested on: innate immune cell mediated inflammation in the colon; conditions: caused by DSS in the colon, preclinical models; cited from earlier work

C[C@H](O)C(=O)C1=Nc2c(nc(N)[nH]c2=O)NC1 [sepiapterin, (S)-2-amino-6-(2-hydroxypropanoyl)-7,8-dihydropteridin-4(3H)-one]
OT-I proliferation (OT-I cells; 10 mg/kg orally for 3 consecutive days from day 3, spleens day 6, FIG. 3A): enhanced proliferation of OT-I cells | T cell activation and IFN-γ secretion (OT-I cells; 10 mg/kg orally for 3 consecutive days, spleens stimulated 6 hours with BFA, PMA, ionomycin, FIG. 3B): minimal effect on T cell activation and IFN-γ secretion | oxidation stability [1]: prone to rapid oxidation when exposed to air | tolerability [2]: well tolerated | cytokine expression in bronchoalveolar lavage (BAL) fluid [3]: lower levels of cytokine expression | proliferation of CD8+ T cells (CFSE dilution) ([4]; 3 days co-culture, 1:10 or 1:40 splenocytes:BMDC, FIG. 2A): enhanced proliferation of anti-viral CD8^+ T cells in a dose dependent manner | T cell activation and IFN-γ secretion ([4]; ELISA, FIGS. 2B and 2C): without directly affecting T cell activation and IFN-γ secretion | innate immune cell mediated inflammation [5]: profoundly suppress innate immune cell mediated inflammation
